Test results published in US12522597B2, “Methods and compositions for modulating splicing” (Skyhawk Therapeutics, Inc., priority 2019, dated 2026).
pEC50: −log10 of the molar value. Read-outs that look alike come from different tables or passages of the source.

How the values were obtained:
[1] = system: Huntingtin (HTT) transcripts; assay: Quantitative splicing assay (HTT), qPCR; assay type: cell-based; conditions: Homo sapiens, GM04724 (CAG 70/20) Huntington's disease patient lymphoblasts, 24 h
Method in brief: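 Read-out is TaqMan qPCR on cDNA, quantifying inclusion of a cryptic exon within HTT intron 49. Cells were Huntington's patient lymphoblasts GM04724 (CAG 70/20), treated for 24 h at 0.15 nM–2.5 uM compound in 0.1% DMSO.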

[2] = system: mHTT protein; assay: mHTT protein assay (2B7-MW1, Mesoscale Discovery); assay type: cell-based, human; conditions: GM04724 (CAG 70/20) Huntington's disease patient lymphoblast cells, 48 hours, 2B7-MW1 MSD; read-out: HTT Potency - Protein EC50 mHTT (average)
Method in brief: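 mHTT levels were read with the 2B7-MW1 antibody pair (N17 and polyQ epitopes) on MSD after 48 h dosing, 10 μM–0.6 nM. Cells were GM04724 HD lymphoblasts (CAG 70/20). A replica plate was read by CTG for cell viability.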

[3] = system: MDR1-MDCK cell monolayers; assay: MDCK-MDR1 permeability assay (BBB penetration potential); assay type: in vitro ADME; conditions: dog, MDCK-MDR1, 120 min, 5 μM, pH 7.4
Description: (§1) Each determination is performed in duplicate. […] Analytical conditions are outlined below.

[4] = system: MDR1; assay: as above; assay type: in vitro ADME; conditions: dog; for efflux ratio at 120 min, 5 μM: MDCK-MDR1, pH 7.4, MDCK-MDR1: Efflux; for Papp A→B at 120 min, 5 μM: MDCK-MDR1, pH 7.4, MDCK-MDR1: Papp A-B; for Papp B→A at 120 min, 5 μM: MDCK-MDR1, pH 7.4, MDCK-MDR1: Papp B-A
Description: as §1

[5] = qPCR HTTex49_50, read-out: HTT Potency - Splicing: E49-50 EC50 (average)
[6] = qPCR cryptic exon 49b inclusion, read-out: HTT Potency - Splicing: E49b EC50 (average)

Structure (SMILES)	pEC50 [1, 5]	pEC50 [1, 6]	pEC50 [2]	MDCK-MDR1: % Recov A-B [3]	MDCK-MDR1: % Recov B-A [3]	efflux ratio at 120 min, 5 μM [4]	Papp A→B at 120 min, 5 μM [4]	Papp B→A at 120 min, 5 μM [4]	MDCK-MDR1: Efflux [3]	MDCK-MDR1: Papp A-B [3]	MDCK-MDR1: Papp B-A [3]
Oc1cc(-c2nncs2)ccc1-c1ccc(O[C@H]2C[C@@H]3CCC[C@@H](N3)[C@H]2F)nn1 (single isomer, unassigned) [116-ENT2]	6.30 to 7.00	6.30 to 7.00	7.30 to 7.80	90%	95%	5	11.3 ×10⁻⁶ cm/s	61.4 ×10⁻⁶ cm/s	–	–	–
Oc1cc(-c2nnco2)ccc1-c1ccc(O[C@@H]2C[C@H]3CCC[C@H](N3)[C@@H]2F)nn1 (single isomer, unassigned) [117-ENT1]	6.30 to 7.00	6.30 to 7.00	7.00 to 7.29	85%	106%	6	7.92 ×10⁻⁶ cm/s	47.5 ×10⁻⁶ cm/s	–	–	–
Oc1cc(-c2nnco2)ccc1-c1ccc(O[C@H]2C[C@@H]3CCC[C@@H](N3)[C@H]2F)nn1 (single isomer, unassigned) [117-ENT2]	6.30 to 7.00	6.30 to 7.00	7.30 to 7.80	78%	93%	5	7.22 ×10⁻⁶ cm/s	37.9 ×10⁻⁶ cm/s	–	–	–
Cn1cc(-c2cc(O)c(-c3ccc(O[C@@H]4C[C@H]5CCC[C@H](N5)[C@@H]4F)nn3)c(F)c2)cn1 (single isomer, unassigned) [118-ENT1]	7.00 to 7.29	7.00 to 7.29	7.00 to 7.29	52%	80%	5	6.21 ×10⁻⁶ cm/s	33.3 ×10⁻⁶ cm/s	–	–	–
Cn1cc(-c2ccc(-c3ccc(O[C@@H]4C[C@H]5CCC[C@H](N5)[C@@H]4F)nn3)c(O)c2F)cn1 (single isomer, unassigned) [119-ENT1]	7.30 to 7.80	7.30 to 7.80	7.30 to 7.80	56%	80%	10	3.4 ×10⁻⁶ cm/s	33 ×10⁻⁶ cm/s	–	–	–
Cn1cc(-c2ccc(-c3ccc(O[C@H]4C[C@@H]5CCC[C@@H](N5)[C@H]4F)nn3)c(O)c2F)cn1 (single isomer, unassigned) [119-ENT2]	7.30 to 7.80	7.30 to 7.80	7.00 to 7.29	59%	64%	3	9.17 ×10⁻⁶ cm/s	29.4 ×10⁻⁶ cm/s	–	–	–
Cn1cc(-c2cc(O)c(-c3ccc(O[C@@H]4C[C@H]5CCC[C@H](N5)[C@@H]4F)nn3)cc2Cl)cn1 (single isomer, unassigned) [120-ENT1]	7.30 to 7.80	7.30 to 7.80	7.30 to 7.80	29%	77%	8	3.51 ×10⁻⁶ cm/s	29.7 ×10⁻⁶ cm/s	–	–	–
Cn1cc(-c2cc(O)c(-c3ccc(O[C@H]4C[C@@H]5CCC[C@@H](N5)[C@H]4F)nn3)cc2Cl)cn1 (single isomer, unassigned) [120-ENT2]	7.00 to 7.29	7.30 to 7.80	7.00 to 7.29	28%	71%	7	4.47 ×10⁻⁶ cm/s	30.2 ×10⁻⁶ cm/s	–	–	–
Cn1cc(-c2ccc(-c3ccc(O[C@H]4C[C@H]5CCC[C@H](N5)[C@@H]4F)nn3)c(O)c2)cn1 (single isomer, unassigned) [121-ENT1]	5.00 to 6.30	5.00 to 6.30	5.00 to 6.30	66%	73%	5	11 ×10⁻⁶ cm/s	50.3 ×10⁻⁶ cm/s	–	–	–
Cn1cc(-c2ccc(-c3ccc(O[C@@H]4C[C@@H]5CCC[C@@H](N5)[C@H]4F)nn3)c(O)c2)cn1 (single isomer, unassigned) [121-ENT2]	5.00 to 6.30	5.00 to 6.30	5.00 to 6.30	75%	90%	3	13.5 ×10⁻⁶ cm/s	45.9 ×10⁻⁶ cm/s	–	–	–
Oc1cc(-c2cn[nH]c2)ccc1-c1ccc(O[C@@H]2C[C@H]3COC[C@H](N3)[C@@H]2F)nn1 (single isomer, unassigned) [123-ENT1]	6.30 to 7.00	6.30 to 7.00	6.30 to 7.00	86%	90%	14	6.22 ×10⁻⁶ cm/s	87.8 ×10⁻⁶ cm/s	–	–	–
Cn1ccc2cc(-c3ccc(O[C@H]4CC5CCC[C@@H](N5)[C@H]4F)nn3)c(O)cc2c1=O (single isomer, unassigned) [125-ENT1]	6.30 to 7.00	7.00 to 7.29	7.00 to 7.29	101%	91%	23	3.35 ×10⁻⁶ cm/s	76 ×10⁻⁶ cm/s	–	–	–
Cn1ccc2cc(-c3ccc(O[C@@H]4C[C@H]5CCC[C@H](N5)[C@@H]4F)nn3)c(O)cc2c1=O (single isomer, unassigned) [125-ENT2]	6.30 to 7.00	7.00 to 7.29	7.30 to 7.80	84%	87%	16	3.2 ×10⁻⁶ cm/s	52 ×10⁻⁶ cm/s	–	–	–
Cn1ccc2cc(-c3ccc(O[C@H]4C[C@@H]5CC[C@@H](N5)[C@H]4F)nn3)c(O)cc2c1=O (single isomer, unassigned) [126-ENT1]	6.30 to 7.00	7.00 to 7.29	7.30 to 7.80	100%	95%	14	3.5 ×10⁻⁶ cm/s	48.3 ×10⁻⁶ cm/s	–	–	–
Cn1ccc2cc(-c3ccc(O[C@@H]4C[C@H]5CC[C@H](N5)[C@@H]4F)nn3)c(O)cc2c1=O (single isomer, unassigned) [126-ENT2]	5.00 to 6.30	6.30 to 7.00	6.30 to 7.00	93%	92%	13	3.51 ×10⁻⁶ cm/s	45.5 ×10⁻⁶ cm/s	–	–	–
Cn1ccc2cc(-c3ccc(O[C@H]4C[C@]5(C)CC[C@@](C)(N5)[C@H]4F)nn3)c(O)cc2c1=O (single isomer, unassigned) [127-ENT1]	6.30 to 7.00	6.30 to 7.00	7.00 to 7.29	78%	70%	7	6.39 ×10⁻⁶ cm/s	46.5 ×10⁻⁶ cm/s	–	–	–
Cn1ccc2cc(-c3ccc(O[C@@H]4C[C@@]5(C)CC[C@](C)(N5)[C@@H]4F)nn3)c(O)cc2c1=O (single isomer, unassigned) [127-ENT2]	7.00 to 7.29	7.30 to 7.80	7.30 to 7.80	89%	103%	6	9.29 ×10⁻⁶ cm/s	55.3 ×10⁻⁶ cm/s	–	–	–
Cn1ccc2cc(O)c(-c3ccc(O[C@H]4C[C@@H]5CCC[C@@H](N5)[C@H]4F)nn3)cc2c1=O (single isomer, unassigned) [128-ENT1]	7.00 to 7.29	7.00 to 7.29	7.30 to 7.80	–	–	7	5.27 ×10⁻⁶ cm/s	38.6 ×10⁻⁶ cm/s	11	5.78 10^−6, cm/s	65.2 10^−6, cm/s
Cn1ccc2cc(O)c(-c3ccc(O[C@H]4C[C@@H]5CC[C@@H](N5)[C@H]4F)nn3)cc2c1=O (single isomer, unassigned) [129-ENT1]	6.30 to 7.00	6.30 to 7.00	7.30 to 7.80	89%	91%	12	4.29 ×10⁻⁶ cm/s	52.8 ×10⁻⁶ cm/s	–	–	–
Cn1ccc2cc(O)c(-c3ccc(O[C@@H]4C[C@H]5CC[C@H](N5)[C@@H]4F)nn3)cc2c1=O (single isomer, unassigned) [129-ENT2]	7.00 to 7.29	7.30 to 7.80	7.82 to 11.00	72%	79%	9	4.94 ×10⁻⁶ cm/s	45.7 ×10⁻⁶ cm/s	–	–	–
Cn1ccc2cc(O)c(-c3ccc(O[C@H]4C[C@]5(C)CC[C@@](C)(N5)[C@H]4F)nn3)cc2c1=O (single isomer, unassigned) [130-ENT1]	7.00 to 7.29	7.30 to 7.80	7.82 to 11.00	78%	80%	6	7.86 ×10⁻⁶ cm/s	43.7 ×10⁻⁶ cm/s	–	–	–
